In ChEMBL document CHEMBL1128127, “The design of potent and stable benzisothiazolone inhibitors of human leukocyte elastase” (Bioorg Med Chem Lett, 1995):

Legend:
[1] = Half-life was determined; 88% of parent remained after incubation for 120 min (human blood stability); type: ADME, tissue-based
Neutrophil elastase = target: T1, Neutrophil elastase (Homo sapiens, UniProt P08246)
T1 sequence (P08246 whole entry): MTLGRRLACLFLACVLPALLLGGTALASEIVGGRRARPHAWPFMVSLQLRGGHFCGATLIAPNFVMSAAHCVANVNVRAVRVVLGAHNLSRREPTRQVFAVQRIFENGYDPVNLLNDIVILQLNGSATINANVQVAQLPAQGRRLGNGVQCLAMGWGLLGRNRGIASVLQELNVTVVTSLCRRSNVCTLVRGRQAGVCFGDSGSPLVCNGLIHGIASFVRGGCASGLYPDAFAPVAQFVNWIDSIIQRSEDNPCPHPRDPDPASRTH
Description: Ratio of Koff to that of Kon was determined on human leukocyte elastase(HLE)

in vitro = conditions: human, blood
Description: Half-life (human blood stability)

[2] = target: T2, Neutrophil elastase (Homo sapiens) (UniProt P08246)
T2 sequence (whole entry): T1 sequence (P08246 whole entry)
Description: (§1) Evaluated for inhibitory activity against Human leukocyte elastase (HLE)

[3] = target: T2, Neutrophil elastase (Homo sapiens); remark: listed apart in the source
Description: as §1

Row | half-life [1] [min] | Ki (Neutrophil elastase) [nM] | half-life (in vitro) [min] | k off [2] [s⁻¹] | k on [3] [M⁻¹ s⁻¹] | SMILES
1 | > 120 | > 2000 | – | – | – | CC(C)(C)c1cccc2c1C(=O)N(CSc1nnnn1-c1ccccc1)S2(=O)=O
2 | – | – | 55 | – | – | CCCc1cccc2c1C(=O)N(CSc1nnnn1-c1ccccc1)S2(=O)=O
3 | – | – | 140 | – | – | COc1cc(C(C)C)c2c(c1)S(=O)(=O)N(COC(=O)c1c(Cl)cccc1Cl)C2=O
4 | – | – | 45 | – | – | CC(C)c1cccc2c1C(=O)N(CSc1nnnn1-c1ccccc1)S2(=O)=O
5 | – | 5.2 | 65 | 6.1e-05 | 11800 | COc1cc2c(c(C(C)C)c1OC)C(=O)N(CSc1nnnn1-c1ccccc1)S2(=O)=O
6 | – | – | < 5 | – | – | O=C1c2ccccc2S(=O)(=O)N1CSc1nnnn1-c1ccccc1
7 | – | 1.1 | 110 | 2.4e-05 | 21500 | CC(C)c1cc(N2CCN(C)CC2)cc2c1C(=O)N(COC(=O)c1c(Cl)cccc1Cl)S2(=O)=O
8 | – | 2.2 | – | 2.7e-05 | 12300 | CC(C)c1cc(N(C)C)cc2c1C(=O)N(COC(=O)c1c(Cl)cccc1Cl)S2(=O)=O
9 | – | 0.03 | < 15 | 3e-05 | 1e+06 | CC(C)c1cc(F)cc2c1C(=O)N(COC(=O)c1c(Cl)cccc1Cl)S2(=O)=O
10 | – | – | 54 | – | – | CCc1cccc2c1C(=O)N(CSc1nnnn1-c1ccccc1)S2(=O)=O
11 | – | – | 100 | – | – | CCC(CC)c1cccc2c1C(=O)N(CSc1nnnn1-c1ccccc1)S2(=O)=O
12 | – | – | 30 | 2.7e-05 | 900000 | CC(C)c1cccc2c1C(=O)N(COC(=O)c1c(Cl)cccc1Cl)S2(=O)=O
13 | – | 0.2 | 37 | 4.7e-05 | 240000 | CCCc1c(OC)c(OC)cc2c1C(=O)N(CSc1nnnn1-c1ccccc1)S2(=O)=O
14 | – | – | 58 | – | – | CCC(C)c1cccc2c1C(=O)N(CSc1nnnn1-c1ccccc1)S2(=O)=O (stereo unspecified)
